Experimental data from US20210253603A1, “MAIN GROUP METAL COMPLEX AND ITS PREPARATION METHOD AND USE” (PEKING UNIVERSITY, priority 2018, published 2021).

Assays:
[1] = tested on: A549; experiment: In vitro anticancer activities of complexes (Experiment 2); type: cell-based, human; settings: A549, 24 hours
From the text: (§1) The cell lines used in the experiments were obtained from Peking University.

[2] = tested on: A375; experiment: as above; type: cell-based, human; settings: A375, 24 hours
From the text: as §1

[3] = tested on: SW480; experiment: as above; type: cell-based, human; settings: SW480, 24 hours
From the text: as §1

[4] = tested on: MCF7; experiment: as above; type: cell-based, human; settings: MCF7, 24 hours
From the text: as §1

[5] = tested on: HeLa; experiment: as above; type: cell-based, human; settings: 24 hours
From the text: as §1

[6] = tested on: human umbilical vein endothelial cells HUVEC; experiment: as above; type: cell-based; settings: 24 hours
Experimental: as §1
The safety index (SI) was calculated according to the following equation:
^bSafety Index (SI)=IC50(HUVEC)/IC50(Hela)

[7] = tested on: HepG2; experiment: as above; type: cell-based; settings: HepG 2, 24 hours
From the text: as §1

[8] = tested on: normal colonic epithelial cells NCM460; experiment: as above; type: cell-based; settings: NCM460, 24 hours
From the text: as §1

[9] = tested on: human microglia CHEM5; experiment: as above; type: cell-based; settings: CHEM 5, 24 hours
From the text: as §1

[10] = Hematological analysis of liver and kidney function; type: in vivo, nude mice; settings: blood samples after treatment
From the text: The research indicators included alanine aminotransferase (ALT), urea nitrogen (BUN), triglycerides (TG), creatine kinase (CK), aspartate aminotransferase (AST), creatinine (CREA), high Density lipoprotein (HDLC), and lactate dehydrogenase (LDH).
The kidney function was related to the blood indicators of BUN and CREA and the liver function. The results about alanine aminotransferase (ALT) and aspartate aminotransferase (AST) in the blood of nude mice were shown in FIG. 8.

[11] = tested on: Raw264.7; experiment: Cytotoxicity, CCK-8 kit, multi-cell lines (Experiment 1); type: cell-based; settings: Raw264.7, 24 hours
[12] = H&E staining analysis of major organs; type: in vivo, nude mice; settings: after treatment
From the text: Further, the parts such as heart, spleen, lung, liver, and kidney were subjected to the H&E staining analysis.

[13] = tested on: HeLa tumors; experiment: In vivo tumor suppression experiment; design: species or system nude mice; settings: after 21 days of treatment, once every 2 days
Experimental: Nude mice carrying HeLa tumors were divided into 4 […], each with 8 mice. […] The dosage was […], and the administration frequency was once every 2 days. The volume of the tumor was calculated with the length and width of the tumor according to the following formula:
Tumor volume (mm^3)=½×length×width^2.
After 21 days, the nude mice of each group were died and dissected. The tumor inhibition was calculated according to the following formula: […]
in which Wc and Wt were the masses of the tumors in the control group and the experimental group, respectively.

[14] = tested on: A375 human malignant melanoma cell line; experiment: Cytotoxicity, CCK-8 kit, multi-cell lines (Experiment 1); settings: A375, 24 hours
[15] = tested on: HEK293 human renal epithelial cell line; experiment: as above; type: cell-based; settings: HEK293, 24 hours
[16] = tested on: DU145 prostate cancer cells; experiment: as above; type: cell-based; settings: DU145, 24 hours
[17] = tested on: HepG2 liver cancer cell lines; experiment: as above; type: cell-based; settings: HepG 2, 24 hours
[18] = tested on: HeLa; experiment: as above; settings: 24 hours
[19] = tested on: COS7 renal epithelial cells; experiment: as above; type: cell-based; settings: COS7, 24 hours
[20] = tested on: MDA-MB-231 highly metastatic breast cancer cell line; experiment: as above; type: cell-based; settings: MDA-MB-231, 24 hours
[21] = tested on: MCF7; experiment: as above; settings: MCF7, 24 hours
Experimental: (§2) The cells were cultured in a cell incubator containing 5% CO2 under the atmosphere of saturated steam at a constant temperature of 37° C. The medium used was a high-sugar Dulbecco's modified Eagle's medium containing 10% fetal bovine serum, 100 μg/mL penicillin and 100 U/mL streptomycin. The cells were grown in a six-well culture plate and passaged every other day. The cytotoxicity of the complex was evaluated by the CCK-8 kit, in which the cells were passed to a 96-well plate containing about 25,000 of cells and 200 µL of medium in each well. After the cells had grown stably and adherently, the medium was changed to complete mediums with different concentrations of the complex to be detected, and a 3-well parallel experiment was performed for each concentration. After culturing in the incubator for 24 hours, the medium was removed and the cells were washed with 100 L of PBS buffer (pH=7.4) for 3 times. Subsequently, 100 L mixture of 10% CCK-8 solution and 90% serum-free medium was added into both the test wells and the control wells, and then was placed in an incubator for culturing. After about 1 hour, the absorption of 450 nm wavelength light in the test and control wells were measured by using a microplate reader, and the cell viabilities (CV) under different concentrations of the complex were calculated according to the following formula: […]

[22] = tested on: A549; experiment: as above; settings: A549, 24 hours
Experimental: as §2

SMILES | IC50 [1] | IC50 [2] | IC50 [3] | IC50 [4] | IC50 [5] | IC50 [6] | IC50 [7] | IC50 [8] | IC50 [9] | further results
C#CCN(C)c1ccc2c(c1)[O][Ga-3]13([N+]#CC)([N+]#CC)[O]c4cc(N(CC)CC)ccc4C=[N+]1C(C#N)=C(C#N)[N+]3=C2.Cl [Complex 2] | 2.29 µM | 0.83 µM | 2.2 µM | 5.29 µM | 6.35 µM | 1.88 µM | 8.19 µM | 4.26 µM | 2.82 µM | –
CC#[N+][Ga-3]123([N+]#CC)[O]c4ccccc4C=[N+]1C(C#N)=C(C#N)[N+]2=Cc1ccccc1[O]3.Cl [Complex 4] | 1.16 µM | 2.2 µM | 0.59 µM | 134 µM | 75.3 µM | 6.37 µM | 43.5 µM | 27.7 µM | 1.64 µM | –
CC#[N+][Ga-3]123([N+]#CC)[O]c4cc(N(C)C)ccc4C=[N+]1C(C#N)=C(C#N)[N+]2=Cc1ccc(N(C)C)cc1[O]3.Cl [Complex 6] | 1.38 µM | 0.07 µM | 4.85 µM | 0.47 µM | 1.38 µM | 4.09 µM | 7.75 µM | 6.44 µM | 2.27 µM | –
CC#[N+][Ga-3]123([N+]#CC)[O]c4cc(N5CCCC5)ccc4C=[N+]1C(C#N)=C(C#N)[N+]2=Cc1ccc(N2CCCC2)cc1[O]3.Cl [Complex 7] | 3.56 µM | 1.4 µM | 7.58 µM | 14.2 µM | 8.61 µM | 2.47 µM | 10.3 µM | 23.1 µM | 5.71 µM | –
C#CCN(C)c1ccc2c(c1)[O][Ga-3]13([N+]#CC)([N+]#CC)[O]c4cc(N(C)CC#C)ccc4C=[N+]1C(C#N)=C(C#N)[N+]3=C2.Cl [Complex 8] | 139 µM | 229 µM | 572 µM | 190 µM | 260 µM | 203 µM | 291 µM | 71 µM | 236 µM | –
CC#[N+][Ga-3]123([N+]#CC)[O]c4cc(N(CC)CC)ccc4C=[N+]1c1ccccc1[N+]2=Cc1ccc(N(CC)CC)cc1[O]3.Cl [Complex 9] | 1.22 µM | 1.37 µM | 4.89 µM | 34.8 µM | 12.4 µM | 9.33 µM | 46.1 µM | 33.5 µM | 1.81 µM | –
CC#[N+][Ga-3]123([N+]#CC)[O]c4c(ccc5c4SCCN5C)C=[N+]1C(C#N)=C(C#N)[N+]2=Cc1ccc2c(c1[O]3)SCCN2C.Cl [Complex 10] | 124 µM | 91.2 µM | 451 µM | 61.7 µM | 87.7 µM | 332 µM | 72.7 µM | 322 µM | 51.9 µM | –
CC#[N+][Ga-3]123([N+]#CC)[O]c4cc5c(cc4C=[N+]1C(C#N)=C(C#N)[N+]2=Cc1cc2c(cc1[O]3)N(C)CCS2)SCCN5C.Cl [Complex 12] | 39.3 µM | 10.8 µM | 42.6 µM | 43.5 µM | 45.8 µM | 58.9 µM | 34.6 µM | 89.9 µM | 44.7 µM | –
CC#[N+][Ga-3]123([N+]#CC)[O]c4cc(N(C)CCCC)ccc4C=[N+]1C(C#N)=C(C#N)[N+]2=Cc1ccc(N(C)CCCC)cc1[O]3.Cl [Complex 13] | 2.72 µM | 0.9 µM | 4.1 µM | 1.74 µM | 21.5 µM | 3.5 µM | 20.9 µM | 20.6 µM | 2.28 µM | –
CC#[N+][Ga-3]123([N+]#CC)[O]c4ccccc4C=[N+]1c1ccccc1[N+]2=Cc1ccccc1[O]3.Cl [Complex 14] | 76.5 µM | 24 µM | 257 µM | 53 µM | 19.5 µM | 163 µM | 38.6 µM | 212 µM | 65.1 µM | –
CC#[N+][Ga-3]123([N+]#CC)[O]c4cc(N(CC)CC)ccc4C=[N+]1c1ccncc1[N+]2=Cc1ccc(N(CC)CC)cc1[O]3.Cl [Complex 15] | 273 µM | 215 µM | 325 µM | 204 µM | 97.4 µM | 75.8 µM | 89.7 µM | 340 µM | 298 µM | –
N.N.[Cl][Pt][Cl] [cisplatin, reference compound] | – | – | – | – | – | – | – | – | – | effects on liver and kidney function (blood indicators ALT, AST, BUN, CREA) [10]: acute toxicity against the liver and the kidney; IC50 [11]: 10.1 ± 1.2 µM; H&E staining of liver and kidney [12]: liver edema and degeneration and kidney swelling; tumor inhibition [13]: 29.9%; IC50 [14]: 3.4 ± 0.3 µM; IC50 [15]: 2 ± 0.1 µM; IC50 [16]: 2.7 ± 0.1 µM; IC50 [17]: 5.3 ± 0.1 µM; IC50 [18]: 5.3 ± 0.3 µM; IC50 [19]: 6.7 ± 0.6 µM; IC50 [20]: 27 ± 1.3 µM; IC50 [21]: 9.1 ± 0.9 µM; IC50 [22]: 9.4 ± 1.5 µM
